Values joined by “and” are separate entries in the source; they are usually repeats but may differ in a detail not shown here. Equal entries are not always repeated.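 Each compound was tested at five concentrations against cells in 96-well plates for 48 hours. Here, GI50 denotes the concentration required for 50% inhibition of growth. TGI: total growth inhibition.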
Legend:
Assay in all cases: NCI tumour cell line growth inhibition, 48 h
MALME-3M melanoma = test system: MALME-3M melanoma
SF-268 CNS = test system: SF-268 CNS
DMS 273 small cell lung = test system: DMS 273 small cell lung
MDA-MB-231 breast = test system: MDA-MB-231 breast
SK-OV-3 ovarian = test system: SK-OV-3 ovarian
MOLT-4 leukemia = test system: MOLT-4 leukemia
KM20L2 colon = test system: KM20L2 colon
UO-31 renal = test system: UO-31 renal
EKVX NSCLC = test system: EKVX NSCLC
SNB-78 CNS = test system: SNB-78 CNS
HCC-2998 colon = test system: HCC-2998 colon

SMILES | TGI (MALME-3M melanoma) | GI50 (SF-268 CNS) | TGI (SF-268 CNS) | TGI (DMS 273 small cell lung) [µM] | TGI (MDA-MB-231 breast) | GI50 (SK-OV-3 ovarian) | TGI (SK-OV-3 ovarian) | GI50 (MOLT-4 leukemia) | TGI (KM20L2 colon) [µM] | GI50 (UO-31 renal) | TGI (EKVX NSCLC) [µM] | TGI (SNB-78 CNS) [µM] | TGI (HCC-2998 colon) | TGI (MOLT-4 leukemia) | TGI (UO-31 renal) | GI50 (MALME-3M melanoma) | GI50 (HCC-2998 colon) | GI50 (KM20L2 colon) [µM] | GI50 (EKVX NSCLC) | GI50 (MDA-MB-231 breast)
CC[C@@]1(O)C(=O)OCc2c1cc1n(c2=O)Cc2cc3c(OC)cccc3nc2-1 | 1.89 µM | 0.0035 µM | 1.01 µM | 1.14 | > 100 µM | 0.00955 µM | 4.41 µM | 0.000417 µM | > 23.6 | 0.00535 µM | 8.56 | – | – | – | – | – | – | – | – | –
S=C1NC(c2ccccc2)=NC(Cc2ccccc2)(c2ccccc2)N1c1ccccc1 (stereo not drawn) | > 100 µM | – | > 100 µM | – | – | – | – | – | > 100 | – | > 100 | > 100 | > 100 µM | > 100 µM | > 100 µM | – | – | – | – | –
O=C1C2=C(c3ccccc31)C(c1ccccc1Cl)NC(=S)N2 (stereo not drawn) | > 100 µM | – | > 100 µM | > 100 | – | – | > 100 µM | – | > 100 | – | > 100 | – | > 100 µM | > 100 µM | > 100 µM | – | – | – | – | –
C=CCC1=C2CCCCC2CCC1=O (stereo not drawn) | > 100 µM | – | > 100 µM | > 100 | – | – | > 100 µM | – | – | – | > 100 | > 100 | – | > 100 µM | > 100 µM | – | – | – | – | –
CCOC(=O)c1sc(Nc2cc(Cl)ccc2Cl)nc1C | > 100 µM | – | > 100 µM | – | – | – | – | – | > 100 | – | > 100 | > 100 | > 100 µM | > 100 µM | > 100 µM | – | – | – | – | –
CCCCN(CCCC)C(=O)C(=O)C(C(=O)C(=O)OC)c1nc2ccccc2o1 (stereo not drawn) | > 100 µM | – | > 100 µM | > 100 | – | – | > 100 µM | – | – | – | – | > 100 | > 100 µM | > 100 µM | > 100 µM | – | – | – | – | –
Cc1cc2c(=O)cc(-c3ccc(Cl)c(Cl)c3)oc2c(C(=O)O)c1C | > 100 µM | – | > 100 µM | – | – | – | > 100 µM | – | > 100 | – | > 100 | > 100 | – | > 100 µM | > 100 µM | – | – | – | – | –
O=C([CH-]C(=O)c1ccccc1)c1ccccc1.O=C([CH-]C(=O)c1ccccc1)c1ccccc1.[CH2-]CCC.[CH2-]CCC.[Sn+4] | 1.35 µM | 0.458 µM | 1.86 µM | – | – | – | – | 0.253 µM | 3.11 | 1.08 µM | 2.7 | – | 1.92 µM | 0.754 µM | 2.29 µM | 0.271 µM | 0.519 µM | 1.57 | 1.17 µM | –
CN(CC(=O)O)S(=O)(=O)c1ccc(Cl)cc1 | > 100 µM | – | > 100 µM | > 100 | – | – | > 100 µM | – | > 100 | – | > 100 | – | > 100 µM | > 100 µM | > 100 µM | – | – | – | – | –
O=C(NCCCNc1cc(-c2cn(-c3ccccc3)nc2-c2cccc(O)c2)ccn1)c1ccc(F)cc1 | 4.49 µM | 2.99 µM | 26.9 µM | – | 4.98 µM | 3.39 µM | 24.2 µM | 2.36 µM | – | 1.78 µM | 69.1 | – | 3.4 µM | 14 µM | 10.2 µM | 1.95 µM | 1.83 µM | – | 3.7 µM | 2.09 µM
CC12OC(C(=O)C13CC3)C1C(=O)c3cccc(O)c3C(=O)C12 (stereo not drawn) | 14 µM | 6.08 µM | > 68.5 µM | – | 16.3 µM | 22.9 µM | > 75.3 µM | 1.83 µM | – | 23.1 µM | 37.6 | – | 46.7 µM | > 100 µM | > 100 µM | 5.31 µM | 18.5 µM | – | 11.8 µM | 2.43 µM
COC(=O)Nc1nc2ccc(C(=O)C3CC3)cc2[nH]1 | > 100 µM | 0.573 µM | 31.3 µM | – | > 46.1 µM | 0.412 µM | > 62 µM | 1.25 µM | – | 3.21 µM | > 100 | – | – | > 100 µM | > 63.1 µM | 0.392 µM | 0.771 µM | – | 0.554 µM | 1.28 µM
Oc1c(CCl)cc(Cl)cc1Cc1cc(Cl)cc(Cc2cc(Cl)cc(CCl)c2O)c1O | 14.7 µM | 3.18 µM | 62.1 µM | – | 7.63 µM | 3.25 µM | 11.4 µM | 2.67 µM | – | 2.92 µM | 15.8 | – | 12.2 µM | 13.4 µM | 11.8 µM | 3.32 µM | 2.8 µM | – | 2.89 µM | 2.64 µM
CC[n+]1c(/C=C/c2ccc(N3CCCC3)cc2)cccc1/C=C/c1ccc(N2CCCC2)cc1 | 2.13 µM | 0.449 µM | 1.58 µM | – | 1.29 µM and 1.11 µM | 0.228 µM | 0.897 µM | 0.128 µM and 0.354 µM | – | 0.376 µM | 2.08 | – | 0.338 µM | – | 1.6 µM | 0.293 µM | 0.181 µM | – | 0.0832 µM | 0.264 µM and 0.268 µM
Cc1cc2c(=O)cc(-c3ccc(Cl)cc3Cl)oc2c(C(=O)O)c1C | > 100 µM | – | > 100 µM | – | – | – | > 100 µM | – | > 100 | – | > 100 | > 100 | – | > 100 µM | > 100 µM | – | – | – | – | –
Nc1n[nH]c2ccc([C@H]3[C@@H]4C5CCC(C5)[C@@H]4c4c(ccc5[nH]ncc45)N3S(=O)(=O)C3CC3)cc12 (stereo partly drawn) | 40.9 µM | 0.618 µM | 14 µM | – | 12.4 µM | 5.59 µM | 38.8 µM | 0.184 µM | – | 0.298 µM | > 45.4 | – | 8.42 µM | – | 29.2 µM | 0.326 µM | 0.199 µM | – | 0.264 µM | 0.322 µM
COc1ccc2c(c1)OC(N)=C(C#N)C2c1ccc(F)c(F)c1 (stereo not drawn) | 77.4 µM | 0.754 µM | > 65.4 µM | – | 62.1 µM | 0.495 µM | > 64.1 µM | 0.55 µM | – | 0.648 µM | > 100 | – | > 44.9 µM | > 100 µM | > 100 µM | 0.619 µM | 2.5 µM | – | 0.751 µM | 1.33 µM
O=C(NC(=S)Nc1ccc(-c2nc3ccccc3[nH]2)cc1)c1ccc2ccccc2c1 | 5.54 µM | > 100 µM | > 100 µM | – | 7.15 µM | 12.8 µM | 37 µM | 8.04 µM | – | 1.92 µM | > 100 | – | > 100 µM | > 100 µM | 3.65 µM | 2.14 µM | 7.15 µM | – | 22.9 µM | 2.46 µM
CN1CCN(C(=O)OCc2nc3c(N4CCOCC4)nc(-c4ccccc4)nc3n2C)CC1 | 2.8 µM | 1.41 µM | 2.85 µM | – | 2.37 µM | 2.97 µM | 9.13 µM | 0.526 µM | – | 0.377 µM | 2.94 | – | 3.21 µM | 3.12 µM | 1.8 µM | 1.44 µM | 1.58 µM | – | 1.39 µM | 1.09 µM
O=C(CSc1nc2ccc([N+](=O)[O-])cc2[nH]1)Nc1ccc([N+](=O)[O-])cc1 | 8.1 µM | 2.72 µM | 14.5 µM | – | 6.31 µM | 1.89 µM | 5.59 µM | 2.81 µM | – | 1.4 µM | 10.8 | – | 15.3 µM | > 32.3 µM | 8.18 µM | 1.88 µM | 3 µM | – | 2.23 µM | 2.08 µM
Clc1ccc(Nc2ncnc3ccccc23)cc1 | > 100 µM | 38.7 µM | > 100 µM | – | > 100 µM | 91.1 µM | > 100 µM | 20.6 µM | – | 61 µM | > 100 | – | > 100 µM | 59.5 µM | > 100 µM | 33.9 µM | > 100 µM | – | 10.1 µM | > 100 µM
COc1cccc(Nc2ncnn3ccc(CN4CC[C@@H](N)[C@H](O)C4)c23)c1 | 35.2 µM and > 10 µM | 4.42 µM and 1.62 µM | 99.7 µM and > 6.67 µM | – | 25.9 µM and > 10 µM | 0.0386 µM and 0.0322 µM | 0.772 µM and 0.129 µM | 5.68 µM and 2.26 µM | – | 0.145 µM and 0.132 µM | > 100 | – | 36.1 µM and > 9.59 µM | 33.2 µM and > 10 µM | 5.02 µM and 4.12 µM | 17.6 µM and > 4.83 µM | 15.6 µM and > 3.65 µM | – | 0.0275 µM and 0.0282 µM | 2.3 µM and 1.54 µM
CN1C(=O)CNS1(=O)=O | > 100 µM | – | > 100 µM | > 100 | – | – | > 100 µM | – | – | – | – | > 100 | > 100 µM | > 100 µM | > 100 µM | – | – | – | – | –
NS(=O)(=O)c1ccc(N=Nc2c(O)[nH]c3cccc(CCc4ccncc4)c23)cc1 | > 25 µM | > 25 µM | > 25 µM | – | > 25 µM | > 25 µM | > 25 µM | > 25 µM | – | > 25 µM | > 25 | – | > 25 µM | > 25 µM | > 25 µM | > 25 µM | > 25 µM | – | > 25 µM | > 25 µM
CCN1C2=C(SC(=S)C1=C1SC(C(=O)c3ccccc3)=C(C(=O)c3ccccc3)S1)SC(=Nc1ccccc1)C2=O | > 100 µM | 8.24 µM | > 100 µM | – | > 100 µM | > 96.7 µM | > 100 µM | 0.625 µM | – | 5.9 µM | > 100 | – | > 100 µM | > 22.2 µM | > 100 µM | 21.2 µM | > 100 µM | – | 80.4 µM | 13.6 µM
CC(C)c1ccc2c(c1)CCC1C(C)(CN)CCCC21C (stereo not drawn) | 2.8 µM | – | 3.22 µM | – | 2.95 µM | – | 3.98 µM | – | – | – | 3.4 | – | 0.485 µM | 3.61 µM | 2.66 µM | – | – | – | – | –

Source: PubChem BioAssay (NCI)
